These are literature values, as cited in patent US6627614B1, “Sequential therapy comprising a 20(S)-camptothecin and an anthracycline” (priority 2002, dated 2003).

Series [1] deals with human colon cancer xenografts.
The subject of series [2] is human tumor xenografts.
Series [3] deals with various types of cancer, including primary cancer and metastasis. As to conditions: patients, oral.
For series [4] the following is noted: administered intravenously, patients.
Series [5] has as its system nontumorigenic and tumorigenic human cells.
Assay in series [6]: not given
The source holds these as a separate data set.

For `CC[C@@]1(O)C(=O)OCc2c1cc1n(c2=O)Cc2cc3c(N)cccc3nc2-1` [9AC, 9-Amino-20(S)-Camptothecin], the “anticancer activity against human colon cancer xenografts” value in series [1] is recorded as “high anticancer activity”.

`CC[C@@]1(O)C(=O)OCc2c1cc1n(c2=O)Cc2cc3c([N+](=O)[O-])cccc3nc2-1` [9NC, 9-nitrocamptothecin]: the “activity against human tumor xenograft models” value in series [2] (human tumor xenograft models) is listed as “high activity”. Besides, the “growth of human tumor xenografts” value in series [2] (immunodeficient nude mice) is recorded as “inhibited the growth”. Besides, in series [2] (tumors established as xenografts in nude mice), the “regression of established human tumors” value is on record as “induced regression”. Further, in series [3], the “tumors known to regress after exposure” value was “breast carcinoma, ovarian carcinoma, cholangiocarcinoma, monomyelocytic leukemia, and pancreatic carcinoma”.

As to `CC[C@@]1(O)C(=O)OCc2c1cc1n(c2=O)Cc2cc3cc4c(cc3nc2-1)OCO4` [10,11 MD, 10,11-Methylendioxy-20(S)-Camptothecin], the “anticancer activity against human colon cancer xenografts” value in series [1] was “high anticancer activity”.

Consider `CC[C@@](O)(C(=O)[O-])c1cc2n(c(=O)c1CO)Cc1cc3ccccc3nc1-2.[Na+]` [20(S)-camptothecin Na^+, sodium salt of 20(S)-camptothecin], for which, in series [4], the “potency in clinical trials” value is reported as “low potency” and the “toxicity in clinical trials” value is “high toxicity”.

As to `CC[C@@]1(O)C(=O)OCc2c1cc1n(c2=O)Cc2cc3ccccc3nc2-1` [20(S)-camptothecin], in series [5] (nontumorigenic human cells in vitro), the “effect on nontumorigenic cells” value was “cytostatic”. Further, in series [5] (tumorigenic human cells in vitro), the “effect on tumorigenic cells” value is “cytotoxic”.

As to `COc1cccc2c1C(=O)c1c(O)c3c(c(O)c1C2=O)C[C@@](O)(C(=O)CO)C[C@@H]3OC1CC(N)C(O)C(C)O1` (stereo partly shown) [doxorubicin], the “clearance in patients with impaired hepatic function” value was “reduced”. For the same compound, the “crossing of the blood brain barrier” value (human, in vivo) was “does not cross”. Besides, the “dose appearing in the bile” value (in 5 days) is “Approximately 40%”. The “systemic clearance in obese women” value (obese women with ideal body weight greater than 130%) is “significantly reduced”. The initial distributive half-life result (patients, intravenous injection) is reported as “approximately 5.0 minutes”. Further, in series [6] (children, long term follow-up), the “children with subclinical cardiac dysfunction” value was at most 40%. Further, in series [6] (patients), the “additional toxicity manifested by” value is “neutropenia, thrombocytopenia, anemia, confusion and hematuria”; the “total cumulative dose at which irreversible cardiac toxicity may occur” value was about 550 mg/M^2.

Consider `COc1cccc2c1C(=O)c1c(O)c3c(c(O)c1C2=O)C[C@@](O)([C@@H](O)CO)C[C@@H]3O[C@H]1C[C@H](N)[C@H](O)[C@H](C)O1` [doxorubicinol], for which the “clearance in patients with impaired hepatic function” value is listed as “reduced”.
